pIC50: −log10 of the molar value.
How the values were obtained:
[1] = biological target: T1, Full length DGKζ (in-house protein M1-V929) (Homo sapiens, UniProt Q13574); experiment: Biochemical DGK IC50 assay (ADP-Glo, lipid micelle substrate), DGKζ; details: 1 hour preincubation, 1 hour reaction, room temperature
T1 construct: His (N); TEV site (N); made in house; host or cells: Sf9 insect cells (Bac-to-Bac baculovirus)
Experimental: (§1) Enzymatic reactions of DGKζ, DGKα and DGKδ were performed using ADP-Glo assay with lipid micelle substrate. […] Full length DGKα (D21-10BG, SignalChem) and full length DGKδ (D23-10G, SignalChem) were purchased. Lipid micelle was prepared by dissolving DAG (Sigma, 317505-10 MG) and PS (Sigma, P7769-100 MG) with chloroform which was furtherly removed by rotary evaporation. The obtained residue was resuspended in buffer containing 25 mM HEPES pH 7.0, 0.5 mM EDTA and 160 mM Octyl β-D glucopyranoside by vigorous mixing and ultrasonic (IID, Scientz).
(§2) The inhibition activities testing for the compound disclosed herein were carried out at room temperature in assay buffer containing 50 mM HEPES, 10 mM MgCl2, 0.01% BSA, 0.1 mM Na3VO4, 0.005% Tween-20 and 0.01 mM CaCl2). Compounds in DMSO were dispensed into wells of a black 384 well plate (Corning 4514) using D300e digital dispenser (Tecan). […] 3 μL 2× enzyme solution was added to wells. […] After 1 hour reaction, 5 μL ADP-Glo reagent (Promga V9101) was added and incubated for 40 minutes. 10 μL Kinase Detection reagent was added and incubated for 30 minutes. Luminescence was measured on a microplate reader (PHERAstar FSX, BMG labtech). The IC50S are calculated based on inhibition of enzyme activity in the presence of increasing concentrations of compounds.
Human His-TEV-DGK-zeta-pFastBac1 and human baculovirus samples was generated using the Bac- to -Bac baculovirus expression system (Invitrogen) according to the manufacturer's protocol. The DNA used for expression of DGK-zeta, have SEQ ID Nos: 1. Baculovirus amplification was achieved using infected SF9 cells at 1:2000 virus/cells ratios, and grown for 96 hours at 27° C. post-transfected.
The expression scaled up for each protein was carried out in the […] from CORNING. 4 L of 3×10^6 cells/mL Sf9 cells (Expression System, Invitrogen) grown in SF900™ II SFM insect medium (Expression System) was infected with virus stock at 1:200 virus/cells ratio, and grown for 48 hours at 27° C. post-transfection. The infected cell culture was harvested by centrifugation at 6000 rpm for 15 min 4° C. in a SORVALL LYNX6000 centrifuge. The cell pellets were stored at −80° C.
Full length human DGKζ produced as described above, was purified from Sf9 baculovirus-infected insect cell paste. The cells were lysed using sonication method, and the lysates were clarified by centrifugation.

[2] = biological target: T2, Full length DGKα (D21-10BG, SignalChem) (Homo sapiens, UniProt P23743); experiment: Biochemical DGK IC50 assay (ADP-Glo, lipid micelle substrate), DGKα; details: 1 hour preincubation, 1 hour reaction, room temperature
T2 construct: Full length DGKα (D21-10BG, SignalChem); purchased SignalChem D21-10BG
Experimental: as §1, §2

T1 sequence (Q13574 1-929 isoform Q13574-4): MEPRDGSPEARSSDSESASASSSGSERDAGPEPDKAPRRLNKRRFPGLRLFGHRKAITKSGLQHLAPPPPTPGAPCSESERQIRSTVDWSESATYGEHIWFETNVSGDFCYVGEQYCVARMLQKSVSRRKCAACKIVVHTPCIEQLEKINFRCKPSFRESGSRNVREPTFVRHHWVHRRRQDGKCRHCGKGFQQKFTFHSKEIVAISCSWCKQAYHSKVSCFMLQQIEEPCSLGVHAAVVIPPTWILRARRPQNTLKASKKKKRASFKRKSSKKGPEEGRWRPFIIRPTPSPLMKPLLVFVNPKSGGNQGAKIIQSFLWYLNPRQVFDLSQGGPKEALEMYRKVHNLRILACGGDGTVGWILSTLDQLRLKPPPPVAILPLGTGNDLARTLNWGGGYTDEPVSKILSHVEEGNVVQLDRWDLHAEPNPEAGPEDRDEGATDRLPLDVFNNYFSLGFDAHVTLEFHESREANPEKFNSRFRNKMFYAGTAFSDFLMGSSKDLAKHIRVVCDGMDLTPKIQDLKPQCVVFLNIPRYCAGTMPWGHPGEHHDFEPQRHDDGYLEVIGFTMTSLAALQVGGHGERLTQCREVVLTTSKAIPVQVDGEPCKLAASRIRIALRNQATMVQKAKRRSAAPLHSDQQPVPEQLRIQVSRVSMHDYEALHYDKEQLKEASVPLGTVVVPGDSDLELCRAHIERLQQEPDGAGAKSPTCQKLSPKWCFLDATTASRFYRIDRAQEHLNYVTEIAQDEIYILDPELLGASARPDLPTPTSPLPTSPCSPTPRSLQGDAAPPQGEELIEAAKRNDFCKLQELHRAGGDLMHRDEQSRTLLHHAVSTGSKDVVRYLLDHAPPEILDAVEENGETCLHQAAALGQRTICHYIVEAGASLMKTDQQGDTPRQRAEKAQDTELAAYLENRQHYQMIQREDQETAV
T2 sequence (P23743 whole entry): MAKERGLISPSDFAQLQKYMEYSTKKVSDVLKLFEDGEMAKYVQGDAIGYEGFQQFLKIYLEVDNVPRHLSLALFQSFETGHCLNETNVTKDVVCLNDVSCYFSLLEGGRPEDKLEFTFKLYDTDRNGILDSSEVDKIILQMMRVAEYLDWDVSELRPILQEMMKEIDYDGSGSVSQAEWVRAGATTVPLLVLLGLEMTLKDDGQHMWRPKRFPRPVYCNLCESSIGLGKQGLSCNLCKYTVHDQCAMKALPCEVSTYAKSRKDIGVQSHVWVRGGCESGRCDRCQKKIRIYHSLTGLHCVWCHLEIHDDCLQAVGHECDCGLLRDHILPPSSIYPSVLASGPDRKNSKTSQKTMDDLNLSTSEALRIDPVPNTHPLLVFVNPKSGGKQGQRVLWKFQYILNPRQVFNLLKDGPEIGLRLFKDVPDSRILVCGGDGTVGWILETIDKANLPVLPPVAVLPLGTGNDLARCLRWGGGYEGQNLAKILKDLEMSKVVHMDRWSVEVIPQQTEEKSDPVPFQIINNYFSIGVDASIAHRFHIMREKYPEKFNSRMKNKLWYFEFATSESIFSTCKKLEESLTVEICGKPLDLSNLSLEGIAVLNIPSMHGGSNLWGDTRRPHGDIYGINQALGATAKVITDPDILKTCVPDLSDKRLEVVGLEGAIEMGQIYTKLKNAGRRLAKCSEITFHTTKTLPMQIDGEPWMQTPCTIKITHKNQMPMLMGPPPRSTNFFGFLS

| SMILES | pIC50 [1] | pIC50 [2] |
| --- | --- | --- |
| COC[C@H]1CN(C(C)c2ccc3ncc(C)nc3c2)[C@H](C)CN1c1nc(=O)n(C)c2c1nc(CC#N)n2C (single isomer, unassigned) [Compound A13b] | 7.27 | < 3.82 |
| CC(OC(F)F)c1cc(F)ccc1C(C)N1C[C@H](C)N(c2nc(=O)n(C)c3c2nc(CC#N)n3C)C[C@H]1C (single isomer, unassigned) [Compound A29a] | 6.36 | < 3.82 |
| CCn1c(CC#N)nc2c(N3C[C@@H](C)N(C(C)c4ccc5c(c4)OC(C)(C)CO5)C[C@@H]3C)nc(=O)n(C)c21 (single isomer, unassigned) [Compound A60b] | 6.69 | < 3.82 |
| CC(c1ccc(F)cc1C(F)(F)F)N1C[C@H](C)N(c2cc(=O)n(C)c3[nH]c(CC#N)nc23)C[C@H]1C (single isomer, unassigned) [Compound A9b] | 6.77 | < 5.00 |
| CCn1c(=O)nc(N2C[C@@H](C)N(C(C)c3ccc4c(c3)OC(C)(C)CO4)C[C@@H]2C)c2nc(CC#N)n(C)c21 (single isomer, unassigned) [Compound A61b] | 6.38 | 4.42 |
| CCn1c(CC#N)nc2c(N3C[C@@H](C)N(C(C)c4ccc5c(c4F)OC(C)(C)CO5)C[C@@H]3C)nc(=O)n(C)c21 (stereo partly drawn) [Compound A71, 2-(9-ethyl-6-((2S,5R)-4-(1-(5-fluoro-3,3-dimethyl-2,3-dihydrobenzo[b][1,4]dioxin-6-yl)ethyl)-2,5-dimethylpiperazin-1-yl)-3-methyl-2-oxo-3,9-dihydro-2H-purin-8-yl)acetonitrile] | 7.32 | 3.91 |
| CC(c1cc2c(cc1F)OCC(C)(C)O2)N1C[C@H](C)N(c2nc(=O)n(C)c3c2nc(CC#N)n3C)C[C@H]1C (stereo partly drawn) [Compound A69, 2-(6-((2S,5R)-4-(1-(7-fluoro-3,3-dimethyl-2,3-dihydrobenzo[b][1,4]dioxin-6-yl)ethyl)-2,5-dimethylpiperazin-1-yl)-3,9-dimethyl-2-oxo-3,4,5,9-tetrahydro-2H-purin-8-yl)acetonitrile] | 8.22 | 5.51 |
| CCn1c(CC#N)nc2c(N3C[C@@H](C)N(C(C)c4c(F)cc5c(c4F)OC(C)(C)O5)C[C@@H]3C)nc(=O)n(C)c21 (single isomer, unassigned) [Compound A176b] | 8.15 | 5.14 |
| CC[C@@H]1CN(c2nc(=O)n(C)c3c2nc(CC#N)n3CC)[C@@H](C)CN1C(C)c1ccc2c(c1)OC(C)(C)CO2 (stereo partly drawn) [Compound A65, 2-(6-((2S,5R)-4-(1-(3,3-dimethyl-2,3-dihydrobenzo[b][1,4]dioxin-6-yl)ethyl)-5-ethyl-2-methylpiperazin-1-yl)-9-ethyl-3-methyl-2-oxo-3,9-dihydro-2H-purin-8-yl)acetonitrile] | 8.64 | 4.62 |
| CC(c1ccc(C(F)(F)F)cn1)N1C[C@H](C)N(c2nc(=O)n(C)c3c2nc(CC#N)n3C)C[C@H]1C (single isomer, unassigned) [Compound A148a] | 5.96 | 5.44 |
| CCn1c(CC#N)nc2c(N3C[C@@H](C)N(C(C)c4ccc5c(c4)OC(F)(F)O5)C[C@@H]3C)nc(=O)n(C)c21 (stereo partly drawn) [Compound A99, 2-(6-((2S,5R)-4-(1-(2,2-difluorobenzo[d][1,3]dioxol-5-yl)ethyl)-2,5-dimethylpiperazin-1-yl)-9-ethyl-3-methyl-2-oxo-3,9-dihydro-2H-purin-8-yl)acetonitrile] | 6.89 | 4.25 |
| CC(c1ccc(F)cc1C(F)(F)F)N1C[C@H](C)N(c2cc(=O)n(C)c3c2nc(CC#N)n3C)C[C@H]1C (stereo partly drawn) [Compound A2, 2-(7-((2S,5R)-4-(1-(4-fluoro-2-(trifluoromethyl)phenyl)ethyl)-2,5-dimethylpiperazin-1-yl)-3,4-dimethyl-5-oxo-4,5-dihydro-3H-imidazo[4,5-b]pyridin-2-yl)acetonitrile] | 7.04 | < 3.82 |
| CC(c1ccc(F)cc1OC(F)F)N1C[C@H](C)N(c2nc(=O)n(C)c3c2nc(CC#N)n3C)C[C@H]1C (stereo partly drawn) [Compound A25, 2-(6-((2S,5R)-4-(1-(2-(difluoromethoxy)-4-fluorophenyl)ethyl)-2,5-dimethylpiperazin-1-yl)-3,9-dimethyl-2-oxo-3,9-dihydro-2H-purin-8-yl)acetonitrile] | 7.82 | 4.43 |
| CCn1c(CC#N)nc2c(N3C[C@@H](C)N(C(C)c4ccnc(N5CCC5)c4)C[C@@H]3C)nc(=O)n(C)c21 (stereo partly drawn) [Compound A121, 2-(6-((2S,5R)-4-(1-(2-(azetidin-1-yl)pyridin-4-yl)ethyl)-2,5-dimethylpiperazin-1-yl)-9-ethyl-3-methyl-2-oxo-3,9-dihydro-2H-purin-8-yl)acetonitrile] | 6.67 | < 3.82 |

Other lines, results leading:

| pIC50 [1] | pIC50 [2] | SMILES |
| --- | --- | --- |
| 8.15 | 4.18 | CCn1c(CC#N)nc2c(N3C[C@@H](C)N(C(C)c4ccc5c(c4)OC(F)(F)CO5)C[C@@H]3C)nc(=O)n(C)c21 (single isomer, unassigned) [Compound A80a] |
| 6.63 | < 3.82 | CCn1c(CC#N)nc2c(N3C[C@@H](C)N(C(C)c4ccc5c(c4)C(C)(C)N(C)C5=O)C[C@@H]3C)nc(=O)n(C)c21 (stereo partly drawn) [Compound A84, 2-(6-((2S,5R)-2,5-dimethyl-4-(1-(2,3,3-trimethyl-1-oxoisoindolin-5-yl)ethyl)piperazin-1-yl)-9-ethyl-3-methyl-2-oxo-3,9-dihydro-2H-purin-8-yl)acetonitrile] |
| 5.78 | 4.04 | CC(c1ccc2c(c1)OCCO2)N1C[C@H](C)N(c2nc(=O)n(C)c3c2nc(CC#N)n3C)C[C@H]1C (single isomer, unassigned) [Compound A58b] |
| < 5.00 | < 3.82 | CCn1c(CC#N)nc2c(N3C[C@@H](C)N(C(C)c4ccn(C)c(=O)c4)C[C@@H]3C)nc(=O)n(C)c21 (stereo partly drawn) [Compound A107, 2-(6-((2S,5R)-2,5-dimethyl-4-(1-(1-methyl-2-oxo-1,2-dihydropyridin-4-yl)ethyl)piperazin-1-yl)-9-ethyl-3-methyl-2-oxo-3,9-dihydro-2H-purin-8-yl)acetonitrile] |
| 9.06 | 5.28 | CC[C@H]1CN(C(C)c2ccc3c(c2)OC(C)(C)CO3)[C@H](CC)CN1c1nc(=O)n(C)c2c1nc(CC#N)n2C (single isomer, unassigned) [Compound A64a] |
| 6.28 | 4.83 | CC(c1ccc2c(c1)OC(F)(F)C(F)(F)O2)N1C[C@H](C)N(c2nc(=O)n(C)c3c2nc(CC#N)n3C)C[C@H]1C (single isomer, unassigned) [Compound A79b] |
| 6.95 | < 3.82 | CCn1c(CC#N)nc2c(N3C[C@@H](C)N(C(C)c4cccc(C(C)(C)CO)c4)C[C@@H]3C)nc(=O)n(C)c21 (stereo partly drawn) [Compound A133, 2-(9-ethyl-6-((2S,5R)-4-(1-(3-(1-hydroxy-2-methylpropan-2-yl)phenyl)ethyl)-2,5-dimethylpiperazin-1-yl)-3-methyl-2-oxo-3,9-dihydro-2H-purin-8-yl)acetonitrile] |
| 6.12 | 4.24 | COC[C@H]1CN(C(C)c2ccc3c(c2)OCCO3)[C@H](C)CN1c1nc(=O)n(C)c2c1nc(CC#N)n2C (single isomer, unassigned) [Compound A11a] |
| 7.85 | 4.92 | COC[C@H]1CN(C(C)c2ccc3c(c2)OCCO3)[C@H](C)CN1c1nc(=O)n(C)c2c1nc(CC#N)n2C (single isomer, unassigned) [Compound A11b] |
| 6.75 | 5.61 | CC(c1cc2ccccc2cn1)N1C[C@H](C)N(c2nc(=O)n(C)c3c2nc(CC#N)n3C)C[C@H]1C (stereo partly drawn) [Compound A154, 2-(6-((2S,5R)-4-(1-(isoquinolin-3-yl)ethyl)-2,5-dimethylpiperazin-1-yl)-3,9-dimethyl-2-oxo-3,9-dihydro-2H-purin-8-yl)acetonitrile] |
| 8.15 | 3.99 | CCn1c(CC#N)nc2c(N3C[C@@H](C)N(C(C)c4ccc5c(c4)C(F)(F)CCO5)C[C@@H]3C)nc(=O)n(C)c21 (stereo partly drawn) [Compound A78, 2-(6-((2S,5R)-4-(1-(4,4-difluorochroman-6-yl)ethyl)-2,5-dimethylpiperazin-1-yl)-9-ethyl-3-methyl-2-oxo-3,9-dihydro-2H-purin-8-yl)acetonitrile] |

Reference: US20260125378A2, “Heterocyclic Compounds” (BeOne Medicines I GmbH, priority 2023, published 2026)
